The source of these data is article PMC8856729 (Bioorganic & Medicinal Chemistry Letters, 2022).

Structures are written as SMILES. Read-outs that look alike come from different tables or passages of the source.

The test deals with SARS-CoV-2 M^pro variants (all mutants and the WT). It counts as biochemical.

Regarding `CC(C)(C)[C@H](NC(=O)C(F)(F)F)C(=O)N1C[C@H]2[C@@H]([C@H]1C(=O)N[C@H](C#N)C[C@@H]1CCNC1=O)C2(C)C` [nirmatrelvir], the inhibition entry reads like this: (0.005 µM) “below 50%”; (0.02 µM) “over 50%”. In addition, the “inhibition of enzymatic activity” value (0.1 µM) is “fully inhibited”.
